Series [1] can be described thus: Cytotoxicity in HepG2 cells, Resazurin assay. The format is cell-based. Particulars: human, incubated for 4 days, Resazurin viability. (In general: Resazurin is reduced to fluorescent resorufin, in cell work by metabolically active cells.)
Series [2] concerns HBV. Description: Anti-HBV activity, HepG2.2.15 cell line, HBV DNA from secreted virions by realtime PCR. Particulars: Hepatitis B virus, HepG2.2.15, 144 h, HepG2.2.15 cells, 6 days of treatment. The format is cell-based, Hepatitis B virus.
Series [3] deals with HBV. As to the kind of experiment: Anti-HBV activity, HepG2.117 cell line (Tet-off), intracellular HBV DNA by realtime PCR. Particulars: Hepatitis B virus, HepG2.117, 72 h, HepG2.117 cells, 3 days of treatment. The format is cell-based, Hepatitis B virus.

The values below come from patent US10160743B2, “Sulphamoylthiophenamide derivatives and the use thereof as medicaments for the treatment of hepatitis B” (Janssen Sciences Ireland UC, priority 2013, dated 2018).

`Cc1sc(S(=O)(=O)N[C@@H](C)C(F)(F)F)cc1C(=O)Nc1cc(F)c(F)c(Cl)c1` [Compound 37, N-(3-Chloro-4,5-difluorophenyl)-2-methyl-5-{[(1S)-2,2,2-trifluoro-1-methylethyl]sulfamoyl}thiophene-3-carboxamide]: the CC50 (as a rule, the concentration at which the toxic effect on the cells reaches its halfway point) at 4 days in series [1] was found to be 8200 nM. In addition, the half-maximal effective concentration (EC50) (as a rule, the concentration giving half of the maximal effect) in the series on HBV [2] is 160 nM; with HBV [3], 220 nM.
For the compound `Cc1sc(S(=O)(=O)N[C@@H](C)C(F)(F)F)cc1C(=O)Nc1ccc(F)c(C#N)c1` [Compound 46, N-(3-cyano-4-fluoro-phenyl)-2-methyl-5-[[(1S)-2,2,2-trifluoro-1-methyl-ethyl]sulfamoyl]thiophene-3-carboxamide], the CC50 at 4 days in series [1] was > 25000 nM. Further, the results for the EC50 in the series with HBV [2] and in the series with HBV [3] were 400 nM and 420 nM, respectively.
Consider `Cc1cc(NC(=O)c2scc(S(=O)(=O)N[C@H]3CCOC3)c2C)ccc1F` [Compound 11, N-(4-fluoro-3-methyl-phenyl)-3-methyl-4-[[(3S)-tetrahydrofuran-3-yl]-sulfamoyl]thiophene-2-carboxamide], for which the CC50 at 4 days in series [1] was > 25000 nM. Moreover, the half-maximal effective concentration (EC50) in the series with HBV [2] came out at 190 nM; in the series on HBV [3], 310 nM.
Take `Cc1cc(NC(=O)c2cc(S(=O)(=O)N[C@H]3CCOC3)sc2Br)ccc1F` [Compound 2, 2-bromo-N-(4-fluoro-3-methyl-phenyl)-5-[[(3S)-tetrahydrofuran-3-yl]-sulfamoyl]thiophene-3-carboxamide]: the cytotoxic concentration (CC50) at 4 days in series [1] is > 25000 nM. For the same compound, the concentration for a half-maximal effect (EC50) worked out at 810 nM with HBV [2] and 1900 nM in the series with HBV [3].
As to `Cc1sc(S(=O)(=O)NC(CF)CF)cc1C(=O)Nc1ccc(F)c(C#N)c1` [Compound 43, N-(3-cyano-4-fluoro-phenyl)-5-[[2-fluoro-1-(fluoromethyl)ethyl]sulfamoyl]-2-methyl-thiophene-3-carboxamide], the cytotoxic concentration (CC50) at 4 days in series [1] was > 25000 nM. Moreover, the 50% effective concentration (EC50) was determined as 330 nM with HBV [2] and 670 nM in the series with HBV [3].
For the compound `Cc1sc(S(=O)(=O)NC(C)(C)C)cc1C(=O)Nc1ccc(F)c(Br)c1` [Compound 27, N-(3-Bromo-4-fluorophenyl)-5-(tert-butylsulfamoyl)-2-methylthiophene-3-carboxamide], the midpoint of cytotoxicity in series [1], the CC50 at 4 days, lay at 12200 nM. Also, the concentration for a half-maximal effect (EC50) with HBV [2] was determined as 130 nM; in the series on HBV [3], 90 nM.
In series [1], `Cc1sc(S(=O)(=O)NC(C)(C)C(F)(F)F)cc1C(=O)Nc1cccc(C(F)(F)F)c1` [Compound 42, 2-methyl-5-[(2,2,2-trifluoro-1,1-dimethyl-ethyl)sulfamoyl]-N-[3-(trifluoromethyl)phenyl]thiophene-3-carboxamide] gave a CC50 at 4 days of 16900 nM. In addition, the EC50 is 530 nM in the series with HBV [2] and > 1000 nM in the series with HBV [3].
As to `Cc1cc(NC(=O)c2cc(S(=O)(=O)NC(C)(C)C)sc2C)ccc1F` [Compound 25, 5-(tert-Butylsulfamoyl)-N-(4-fluoro-3-methylphenyl)-2-methylthiophene-3-carboxamide], in series [1], the CC50 at 4 days was > 25000 nM. Also, the concentration giving a half-maximal response (EC50) turned out to be 53 nM in the series on HBV [2] and 58 nM with HBV [3].
As for `Cc1cc(NC(=O)c2cc(S(=O)(=O)N[C@H]3CCOC3)sc2C(F)(F)F)ccc1F` [Compound 5, N-(4-fluoro-3-methyl-phenyl)-5-[[(3S)-tetrahydrofuran-3-yl]sulfamoyl]-2-(trifluoromethyl)thiophene-3-carboxamide], the CC50 at 4 days in series [1] was > 25000 nM. The EC50 with HBV [2] was 1670 nM; in the series with HBV [3] it was 1180 nM.
`Cc1cc(NC(=O)c2cc(S(=O)(=O)N[C@H]3CCOC3)c(C)s2)ccc1F` [Compound 9, N-(4-fluoro-3-methyl-phenyl)-5-methyl-4-[[(3S)-tetrahydrofuran-3-yl]-sulfamoyl]thiophene-2-carboxamide]: the 50% cytotoxic concentration (CC50) at 4 days in series [1] is > 25000 nM. The figures for the EC50 in the series on HBV [2] and in the series with HBV [3] were 790 nM and 1100 nM, respectively.
In the case of `Cc1sc(S(=O)(=O)NC(C)(C)C)cc1C(=O)Nc1ccc(F)c(C#N)c1` [Compound 24, 5-(tert-Butylsulfamoyl)-N-(3-cyano-4-fluorophenyl)-2-methylthiophene-3-carboxamide], in series [1], the cytotoxic concentration (CC50) at 4 days was > 25000 nM. In addition, the 50% effective concentration (EC50) was found to be 120 nM in the series on HBV [2] and 150 nM in the series on HBV [3].
In the case of `Cc1sc(S(=O)(=O)NC(C)(C)C)cc1C(=O)Nc1cc(F)c(F)c(Cl)c1` [Compound 20, 5-(tert-Butylsulfamoyl)-N-(3-chloro-4,5-difluorophenyl)-2-methylthiophene-3-carboxamide], in series [1], half-maximal cytotoxicity (CC50 at 4 days) was put at 15900 nM. Moreover, the concentration for a half-maximal effect (EC50) in the series with HBV [2] came to 170 nM; with HBV [3] it was 110 nM.
In turn, `Cc1sc(S(=O)(=O)N[C@@H](C)C(C)(F)F)cc1C(=O)Nc1ccc(F)c(F)c1` [Compound 47, 5-[[(1S)-2,2-difluoro-1-methyl-propyl]sulfamoyl]-N-(3,4-difluorophenyl)-2-methyl-thiophene-3-carboxamide] yielded a 50% cytotoxic concentration (CC50) at 4 days in series [1] of 14300 nM. Further, the EC50 in the series with HBV [2] was 160 nM; with HBV [3] it was 340 nM.
For `Cc1cc(NC(=O)c2cc(S(=O)(=O)NC3(C(F)(F)F)CC3)sc2C)ccc1F` [Compound 35, N-(4-Fluoro-3-methylphenyl)-2-methyl-5-{[1-(trifluoromethyl)cyclo-propyl]sulfamoyl}thiophene-3-carboxamide], in that order: > 25000 nM, 60 nM and 40 nM.
For `Cc1cc(NC(=O)c2cc(S(=O)(=O)NC3(C)COC3)c(C)s2)ccc1F` [Compound 10, N-(4-fluoro-3-methyl-phenyl)-5-methyl-4-[(3-methyloxetan-3-yl)-sulfamoyl]thiophene-2-carboxamide], in that order: > 25000 nM, 430 nM and 560 nM.
With `Cc1sc(S(=O)(=O)NC(CF)CF)cc1C(=O)Nc1ccc(F)c(F)c1` [Compound 52, N-(3,4-difluorophenyl)-5-[[2-fluoro-1-(fluoromethyl)ethyl]sulfamoyl]-2-meth thiophene-3-carboxamide], the CC50 at 4 days in series [1] was > 25000 nM. For the same compound, the EC50 in the series with HBV [2] and with HBV [3] was 170 nM throughout.
Take `Cc1sc(S(=O)(=O)NC(C)(C)C(F)(F)F)cc1C(=O)Nc1ccc(F)c(C#N)c1` [Compound 45, N-(3-cyano-4-fluoro-phenyl)-2-methyl-5-[(2,2,2-trifluoro-1,1-dimethyl-ethyl)sulfamoyl]thiophene-3-carboxamide]: the CC50 at 4 days in series [1] is > 25000 nM. The EC50 with HBV [2] worked out at 280 nM; with HBV [3] it was 420 nM.
Regarding `Cc1cc(NC(=O)c2ccc(S(=O)(=O)N[C@H]3CCOC3)s2)ccc1F` [Compound 13, N-(4-fluoro-3-methyl-phenyl)-5-[[(3S)-tetrahydrofuran-3-yl]-sulfamoyl]thiophene-2-carboxamide], the CC50 at 4 days in series [1] was > 25000 nM. In addition, the EC50 in the series with HBV [2] stood at 1700 nM; in the series with HBV [3], 940 nM.
As to `CC[C@@H](C)NS(=O)(=O)c1cc(C(=O)Nc2ccc(F)c(F)c2)c(C)s1` [Compound 18, N-(3,4-difluorophenyl)-2-methyl-5-[[(1R)-1-methylpropyl]sulfamoyl]thiophene-3-carboxamide], half-maximal cytotoxicity in series [1] (CC50 at 4 days) was put at 14600 nM. Further, the results for the concentration for a half-maximal effect (EC50) with HBV [2] and in the series with HBV [3] were 65 nM and 82 nM, respectively.
For the compound `Cc1sc(S(=O)(=O)NC(C)(C)C(F)(F)F)cc1C(=O)Nc1cc(F)c(F)c(Cl)c1` [Compound 40, N-(3-chloro-4,5-difluoro-phenyl)-2-methyl-5-[(2,2,2-trifluoro-1,1-dimethyl-ethyl)sulfamoyl]thiophene-3-carboxamide], in series [1], the CC50 at 4 days is > 25000 nM. The same compound showed a 50% effective concentration (EC50) in the series with HBV [3] of 500 nM.
